# Results from article PMC9718554, “Discovery of a fragment hit compound targeting D-Ala:D-Ala ligase of bacterial peptidoglycan biosynthesis” (Journal of Enzyme Inhibition and Medicinal Chemistry, 2022).
# Where two headings read alike, the source gives them in different places.
# Target: T1, E. coli DdlB enzyme (D-alanine:D-alanine ligase) (Escherichia coli, UniProt P07862)
# T1 construct: made in house; host or cells: E. coli
# Assay: biochemical
# Conditions: for remaining activity at 1900 µM: tested concentration 1.9 mM; for remaining activity at 500 µM: at 0.5 mM; for remaining activity at 1000 µM: at 1 mM; for remaining activity at 1500 µM: at 1.5 mM; for remaining activity at 2100 µM: tested concentration 2.1 mM; for remaining activity at 2200 µM: tested concentration 2.2 mM; for remaining activity at 2500 µM: tested concentration 2.5 mM; for remaining activity at 1800 µM: tested concentration 1.8 mM; for remaining activity at 3200 µM: tested concentration 3.2 mM; for remaining activity at 2300 µM: tested concentration 2.3 mM; for remaining activity at 2000 µM: tested concentration 2.0 mM; for remaining activity at 1700 µM: tested concentration 1.7 mM
# Protocol: The fragment library was assayed in a DdlB inhibition assay, where fragments were tested for their ability to inhibit the D-Ala-adding activity of DdlB ligase. The orthophosphate formed during the enzymatic reaction was measured spectrophotometrically using malachite green reagent.
# A recombinant E. coli DdlB enzyme (D-alanine:D-alanine ligase) was expressed in E. coli[11]. […] The final DMSO concentration was 5%. […] All experiments were performed in duplicates. […] IC50 values were determined by measuring the residual activities in quadruplicate at seven different compound concentrations and calculated using in GraphPad Prism (GraphPad Software, San Diego, CA, USA).
# [1] = residual activity, read-out: DdlB RA
# [2] = at 5 mM, read-out: DdlB inhibition, RA (Residual Activity)
# [3] = read-out: DdlB inhibition, RA (Residual Activity)
# [4] = fragment library screening, read-out: DdlB RA
smiles,measurement,setting,value
CN1CCC2(CC1)CN(C1CCC1)Cc1ccccc1O2 [CM3852-0302],remaining activity at 1900 µM,[1],86%
N#Cc1ccc(O)cc1F [Compound 00CS-0032],remaining activity at 3600 µM,"residual activity of DdlB, fragment library screening, tested concentration 3.6 mM, read-out: DdlB RA",94%
"O=C(O)c1cnn2c(-c3ccccc3)ccnc12 [Compound 9, 7-Phenylpyrazolo[1,5-a]pyrimidine-3-carboxylic acid]",remaining activity at 5000 µM,[2],90%
"Cc1ccc(-c2ccnc3c(C(=O)O)cnn23)cc1 [Compound 10, 7-(p-Tolyl)pyrazolo[1,5-a]pyrimidine-3-carboxylic acid]",remaining activity at 500 µM,[3],101%
"Cc1ccc(-c2ccnc3c(C(=O)O)cnn23)cc1C [Compound 11, 7–(3,4-Dimethylphenyl)pyrazolo[1,5-a]pyrimidine-3-carboxylic acid]",remaining activity at 500 µM,[3],100%
"O=C(O)c1cnn2c(-c3ccc(Cl)cc3)ccnc12 [Compound 12, 7–(4-Chlorophenyl)pyrazolo[1,5-a]pyrimidine-3-carboxylic acid]",remaining activity at 1000 µM,[3],90%
same,remaining activity at 5000 µM,[2],0%
"O=C(O)c1cnn2c(-c3cccc([N+](=O)[O-])c3)ccnc12 [Compound 13, 7–(3-Nitrophenyl)pyrazolo[1,5-a]pyrimidine-3-carboxylic acid]",remaining activity at 500 µM,[3],89%
"O=C(O)c1cnn2c(-c3ccc4c(c3)OCO4)ccnc12 [Compound 14, 7-(Benzo[d][1,3]dioxol-5-yl)pyrazolo[1,5-a]pyrimidine-3-carboxylic acid]",remaining activity at 500 µM,[3],100%
"O=C(O)c1cnn2c(-c3cccs3)ccnc12 [Compound 15, 7-(Thiophen-2-yl)pyrazolo[1,5-a]pyrimidine-3-carboxylic acid]",remaining activity at 1000 µM,[3],96%
"O=C(O)c1cnn2c(-c3ccsc3)ccnc12 [Compound 16, 7-(Thiophen-3-yl)pyrazolo[1,5-a]pyrimidine-3-carboxylic acid]",remaining activity at 500 µM,[3],89%
"Cc1nn(C)cc1-c1ccnc2c(C(=O)O)cnn12 [Compound 17, 7–(1,3-Dimethyl-1H-pyrazol-4-yl)pyrazolo[1,5-a]pyrimidine-3-carboxylic acid]",DdlB dose-response curve shape,,Nonsigmoidal curve
same,remaining activity at 5000 µM,[2],26%
"O=C(O)c1cc2nccc(-c3cccs3)n2n1 [Compound 18, 7-(Thiophen-2-yl)pyrazolo[1,5-a]pyrimidine-2-carboxylic acid]",remaining activity at 1500 µM,[3],87%
same,remaining activity at 5000 µM,[2],69%
"O=C(O)c1cc2nccc(-c3ccccc3)n2n1 [Compound 19, 7-Phenylpyrazolo[1,5-a]pyrimidine-2-carboxylic acid]",remaining activity at 1500 µM,[3],90%
same,remaining activity at 5000 µM,[2],50%
"CCOC(=O)c1cnn2c(-c3ccc(C)c(C)c3)ccnc12 [Compound 20, Ethyl 7–(3,4-dimethylphenyl)pyrazolo[1,5-a]pyrimidine-3-carboxylate]",remaining activity at 500 µM,[3],100%
"NC(=O)c1cnn2c(-c3ccccc3)ccnc12 [Compound 21, 7-Phenylpyrazolo[1,5-a]pyrimidine-3-carboxamide]",remaining activity at 500 µM,[3],96%
"Cc1cccc(-c2ccnc3c(C#N)cnn23)c1 [Compound 22, 7-(m-Tolyl)pyrazolo[1,5-a]pyrimidine-3-carbonitrile]",remaining activity at 500 µM,[3],100%
"N/C(=N\O)c1cnn2c(-c3cccc(C(F)(F)F)c3)ccnc12 [Compound 23, (Z)-N'-Hydroxy-7–(3-(trifluoromethyl)phenyl)pyrazolo[1,5-a]pyrimidine-3-carboximidamide]",remaining activity at 500 µM,[3],94%
CCc1ccc(B(O)O)cc1 [Compound 0054-0178],remaining activity at 3300 µM,"tested concentration 3.3 mM, read-out: DdlB RA",104%
O=S(=O)(O)CCN1CCOCC1 [Compound 0083-0027],remaining activity at 2600 µM,"tested concentration 2.6 mM, read-out: DdlB RA",91%
O=C(Nc1ccccc1C(=O)O)c1ccccc1 [Compound 0090-0118],remaining activity at 2100 µM,[1],101%
CCOC(=O)c1ccccc1S(N)(=O)=O [Compound 0147-0017],remaining activity at 2200 µM,read-out: DdlB RA,99%
O=S(=O)(O)CCOc1ccccc1 [Compound 0165-0458],remaining activity at 2500 µM,read-out: DdlB RA,100%
O=[N+]([O-])c1cc(S(=O)(=O)O)ccc1Cl [Compound 0195-0016],remaining activity at 2100 µM,read-out: DdlB RA,100%
CC1CCOB(O)O1 (stereo not drawn) [Compound 0199-0113],remaining activity at 4300 µM,"tested concentration 4.3 mM, read-out: DdlB RA",89%
O=C(Nc1ccccc1C(=O)O)c1ccccc1Cl [Compound 0342-0148],remaining activity at 1800 µM,[1],111%
NS(=O)(=O)c1ccccc1 [Compound 0402-0167],remaining activity at 3200 µM,read-out: DdlB RA,96%
CC(=O)Nc1ccc(S(N)(=O)=O)cc1 [Compound 0405-0094],remaining activity at 2300 µM,read-out: DdlB RA,87%
Nc1c(Cl)cc(S(N)(=O)=O)cc1Cl [Compound 0772-0030],remaining activity at 2100 µM,read-out: DdlB RA,93%
Cc1ccc([N+](=O)[O-])cc1S(=O)(=O)O [Compound 0804-0047],remaining activity at 2300 µM,read-out: DdlB RA,93%
CC(C)(C)NS(=O)(=O)c1ccccc1 [Compound 0896-4384],remaining activity at 2800 µM,"tested concentration 2.8 mM, read-out: DdlB RA",95%
O=C(O)c1ccccc1NC(=O)C(F)(F)F [Compound 0931-0537],remaining activity at 2100 µM,[1],104%
Nc1cccc2cccc(S(=O)(=O)O)c12 [Compound 1091-0114],remaining activity at 2200 µM,read-out: DdlB RA,81%
OB(O)c1ccc(OCc2ccccc2)c(F)c1 [Compound 1222-0119],remaining activity at 2000 µM,read-out: DdlB RA,98%
COc1ccc(B(O)O)cc1F [Compound 1222-0120],remaining activity at 2900 µM,"tested concentration 2.9 mM, read-out: DdlB RA",93%
OB(O)c1ccc(F)c(F)c1 [Compound 1222-0123],remaining activity at 3200 µM,read-out: DdlB RA,88%
Cc1c(N)c(=O)n(-c2ccccc2)n1C [Compound 1254-0226],remaining activity at 2500 µM,read-out: DdlB RA,95%
NS(=O)(=O)c1ccc2c(c1)OCCO2 [Compound 1313-0805],remaining activity at 2300 µM,read-out: DdlB RA,88%
NC1=NC(=O)CO1 [Compound 1318-0067],remaining activity at 5000 µM,"residual activity of DdlB, fragment library screening, tested concentration 5.0 mM, read-out: DdlB RA",102%
Cc1ccc2ccc(S(=O)(=O)O)cc2c1 [Compound 1326-0466],remaining activity at 2200 µM,read-out: DdlB RA,101%
N#Cc1cccc2cccc(S(=O)(=O)O)c12 [Compound 1326-0564],remaining activity at 2200 µM,read-out: DdlB RA,96%
O=C(O)c1cc(S(=O)(=O)N2CCOCC2)ccc1O [Compound 1494-0564],remaining activity at 1700 µM,[1],92%
O=C(O)c1ccccc1C(=O)NCc1cccnc1 [Compound 1514-0633],remaining activity at 2000 µM,[4],93%
Cc1cccc(OCC(=O)NC(C)C(=O)O)c1 (stereo not drawn) [Compound 1683-0903],remaining activity at 2100 µM,read-out: DdlB RA,98%
COC(=O)CCC(=O)Nc1ccc(S(N)(=O)=O)cc1 [Compound 1699-0796],remaining activity at 1700 µM,read-out: DdlB RA,89%
Cc1ccc(O)c(CCc2ccc(O)cc2)n1 [Compound 1733-0143],remaining activity at 2100 µM,read-out: DdlB RA,90%
O=S(=O)(Nc1ccccc1Cl)c1ccc(F)cc1 [Compound 1763-0763],remaining activity at 1900 µM,[1],115%
CC(=O)NCCc1ccc(S(N)(=O)=O)cc1 [Compound 2332-0866],remaining activity at 2100 µM,read-out: DdlB RA,94%
Cc1ccc(S(=O)(=O)N2CCOCC2)c(C)c1 [Compound 2488-0460],remaining activity at 2200 µM,read-out: DdlB RA,90%
Cc1cc(N)n(-c2ccc(S(=O)(=O)O)cc2)n1 [Compound 2991-0739],remaining activity at 2000 µM,read-out: DdlB RA,97%
Oc1nnc(-c2ccccc2)c(-c2ccccc2)n1 [Compound 3039-0046],remaining activity at 2000 µM,[1],104%
COc1ccc2[nH]c(S(=O)(=O)O)nc2c1 [Compound 3260-0314],remaining activity at 2200 µM,read-out: DdlB RA,91%
CCC([N+](=O)[O-])C1(O)C(=O)Nc2ccccc21 (stereo not drawn) [Compound 3817-0017],remaining activity at 2100 µM,[1],95%
COC(=O)c1ccc(S(=O)(=O)O)o1 [Compound 4055-0046],remaining activity at 2400 µM,"tested concentration 2.4 mM, read-out: DdlB RA",102%
Cc1ccc2nc(C)c(CN3CCCCC3C)c(O)c2c1 (stereo not drawn) [Compound 4300-0248],remaining activity at 1800 µM,[1],87%
O=S(=O)(O)c1ccc(O)c2ncccc12 [Compound 4311-2142],remaining activity at 2200 µM,read-out: DdlB RA,96%
O=C(COc1cccc(Br)c1)Nc1nnc[nH]1 [Compound 4491-0732],remaining activity at 1700 µM,read-out: DdlB RA,94%
Cc1cccc(C)c1NC(=O)C[C@H](NCCO)C(=O)O [Compound 4553-3784],remaining activity at 1800 µM,[4],102%
CC(C)n1c(S(=O)(=O)O)nc2ccccc21 [Compound 4587-0081],remaining activity at 2100 µM,read-out: DdlB RA,83%
CC1(C)Cc2[nH]c(=O)c(C(=O)O)cc2CO1 [Compound 4965-0162],remaining activity at 2200 µM,[1],93%
c1ccc2c(c1)N(CN1CCCC1)CC21OCCO1 [Compound 5482-0050],remaining activity at 2300 µM,read-out: DdlB RA,94%
CC1(C)Cc2nc(N)c(C(=O)O)cc2CO1 [Compound 5545-0125],remaining activity at 2300 µM,[1],95%
CN1CCN(C2CC(=O)N(c3ccccc3)C2=O)CC1 (stereo not drawn) [Compound 5593-0294],remaining activity at 2000 µM,[1],99%
Cc1ccc([C@@H](CC(=O)O)c2ccco2)cc1 [Compound 5664-0388],remaining activity at 2200 µM,read-out: DdlB RA,100%
CC(=O)CC1(O)C(=O)Nc2ccc(Br)cc21 (stereo not drawn) [Compound 5897-0084],remaining activity at 1800 µM,[1],96%
O=S(=O)(O)CCN1CCN(CCO)CC1 [Compound 6105-1549],remaining activity at 2100 µM,read-out: DdlB RA,99%
